Positions of bridges follow the written chain, without caps; N, C: chain ends. Residues, ends and D or L forms follow the SMILES beside them.
Tests used:
[1] = test system: S. mutans KCCM40105; test: Ultrasensitive radial diffusion assay (URDA), MEC; assay type: cell-based, Streptococcus mutans; conditions: S. mutans KCCM40105, Gram +, pH 6.6, 37 °C, triplicate, averaged
Protocol: (§1) The antimicrobial activity of the AOD analogs was assessed with an ultrasensitive radial diffusion assay (URDA), as described previously. The antimicrobial activity of the analogs (from 31.3 to 1000 μg/mL, 5 μL volume) was tested against several bacteria, including Bacillus subtilis KCTC1021, Streptococcus mutans KCCM40105, Aeromonas hydrophila KCTC2358, Escherichia coli D31, E. coli ML35p, Pseudomonas aeruginosa KCTC2004, Salmonella enterica KCTC2514, and Shigella sonnei KCTC2009. In addition, Cutibacterium acnes KCTC3314, Staphylococcus epidermidis KCTC1917, and Candida albicans KCTC7965 were used for the anti-acne activity test. All except C. acnes KCTC3314 were grown overnight for 18 h in tryptic soy broth (TSB; for bacteria) or Sabouraud dextrose broth (SDB; for C. albicans) at the appropriate temperature (25 °C for A. hydrophila, 37 °C for the others). C. acnes was grown for 72 h in reinforced clostridial medium (RCM) under anaerobic conditions with an anaerobic gas-generating pouch (GasPak EZ; Becton Dickinson and Company, Sparks, MD, USA) at 37 °C. Following overnight or 72-h incubation, the bacterial and C. albicans suspensions were diluted to a McFarland turbidity standard level of 0.5 (Vitek Colorimeter #52-1210; Hach, Loveland, CO, USA) corresponding to approximately 10^8 colony forming units (CFU)/mL for bacteria and 10^6 CFU/mL for C. albicans. Diluted bacterial or C. albicans suspension (0.5 mL) was added to 9.5 mL underlay gel containing 5 × 10^6 or 5 × 10^4 CFU/mL in 10 mM phosphate buffer (pH 6.6) with 0.03% TSB (or RCM) or 0.03% SDB and 1% Type I low-electroendosmosis agarose. The AOD analogs were serially diluted two-fold in 5 µL acidified water (0.01% acetic acid; HAc) and each dilution was added to 2.5-mm diameter wells in the 1-mm thick underlay gel. After incubation for 3 h at either 25 °C (for A. hydrophila) or 37 °C (for the others), the bacterial or yeast suspension was overlaid with 10 mL double-strength overlay gel containing 6% TSB, RCM, or SDB with 10 mM phosphate buffer (pH 6.6) in 1% agarose. Plates were incubated for an additional 18–24 h (72 h for C. acnes) and the clearing zone diameters were measured. After subtracting the diameter of the well (2.5 mm), the clearing zone diameter was expressed in units (0.1 mm = 1 U).
(§2) The minimal effective concentration (MEC; μg/mL) of the AOD analogs was calculated as the X-intercept of a plot of clearing zone diameter units against the log10 of the peptide concentration. Piscidin 1, an α-helical AMP isolated from hybrid striped bass (Morone saxatilis × Morone chrysops) was used as a positive control.

[2] = test system: P. aeruginosa KCTC2004; test: Ultrasensitive radial diffusion assay (URDA), MEC; assay type: cell-based, Pseudomonas aeruginosa; conditions: P. aeruginosa KCTC2004, Gram -, pH 6.6, 37 °C, triplicate, averaged
Protocol: as §1, §2

[3] = test system: tested strains (bacteria and the yeast C. albicans); test: URDA, overall antimicrobial activity; assay type: cell-based; conditions: all tested strains
Protocol: The antimicrobial activity of the AOD analogs was assessed with an ultrasensitive radial diffusion assay (URDA), as described previously. The antimicrobial activity of the analogs (from 31.3 to 1000 μg/mL, 5 μL volume) was tested against several bacteria, including Bacillus subtilis KCTC1021, Streptococcus mutans KCCM40105, Aeromonas hydrophila KCTC2358, Escherichia coli D31, E. coli ML35p, Pseudomonas aeruginosa KCTC2004, Salmonella enterica KCTC2514, and Shigella sonnei KCTC2009. In addition, Cutibacterium acnes KCTC3314, Staphylococcus epidermidis KCTC1917, and Candida albicans KCTC7965 were used for the anti-acne activity test. All except C. acnes KCTC3314 were grown overnight for 18 h in tryptic soy broth (TSB; for bacteria) or Sabouraud dextrose broth (SDB; for C. albicans) at the appropriate temperature (25 °C for A. hydrophila, 37 °C for the others). C. acnes was grown for 72 h in reinforced clostridial medium (RCM) under anaerobic conditions with an anaerobic gas-generating pouch (GasPak EZ; Becton Dickinson and Company, Sparks, MD, USA) at 37 °C. […] Plates were incubated for an additional 18–24 h (72 h for C. acnes) and the clearing zone diameters were measured. […]
The minimal effective concentration (MEC; μg/mL) of the AOD analogs was calculated as the X-intercept of a plot of clearing zone diameter units against the log10 of the peptide concentration. […]

[4] = test system: S. sonnei KCTC2009; test: Ultrasensitive radial diffusion assay (URDA), MEC; assay type: cell-based, Shigella sonnei; conditions: S. sonnei KCTC2009, Gram -, pH 6.6, 37 °C, triplicate, averaged
Protocol: as §1, §2

[5] = test system: C. albicans KCTC7965; test: Ultrasensitive radial diffusion assay (URDA), MEC; assay type: cell-based, Candida albicans; conditions: C. albicans KCTC7965, yeast, SDB, pH 6.6, 37 °C, triplicate, averaged
Protocol: as §1, §2

[6] = test system: S. epidermidis KCTC1917; test: Ultrasensitive radial diffusion assay (URDA), MEC; assay type: cell-based, Staphylococcus epidermidis; conditions: S. epidermidis KCTC1917, Gram +, pH 6.6, 37 °C, triplicate, averaged
Protocol: as §1, §2

[7] = test system: B. subtilis KCTC1021; test: Ultrasensitive radial diffusion assay (URDA), MEC; assay type: cell-based, Bacillus subtilis; conditions: B. subtilis KCTC1021, Gram +, 10 mM phosphate buffer pH 6.6, 37 °C, X-intercept of clearing zone vs log10 concentration, triplicate, averaged
Protocol: as §1, §2

[8] = test system: A. hydrophila KCTC2358; test: Ultrasensitive radial diffusion assay (URDA), MEC; assay type: cell-based, Aeromonas hydrophila; conditions: A. hydrophila KCTC2358, Gram -, pH 6.6, 25 °C, triplicate, averaged
Protocol: as §1, §2

[9] = test system: E. coli ML35p; test: Ultrasensitive radial diffusion assay (URDA), MEC; assay type: cell-based, Escherichia coli; conditions: Gram -, pH 6.6, 37 °C, triplicate, averaged
Protocol: as §1, §2

[10] = test system: E. coli D31; test: Ultrasensitive radial diffusion assay (URDA), MEC; assay type: cell-based, Escherichia coli; conditions: E. coli D31, Gram -, pH 6.6, 37 °C, triplicate, averaged
Protocol: as §1, §2

[11] = test system: S. enterica KCTC2514; test: Ultrasensitive radial diffusion assay (URDA), MEC; assay type: cell-based, Salmonella enterica; conditions: S. enterica KCTC2514, Gram -, pH 6.6, 37 °C, triplicate, averaged
Protocol: as §1, §2

[12] = test system: C. acnes KCTC3314; test: Ultrasensitive radial diffusion assay (URDA), MEC; assay type: cell-based, Cutibacterium acnes; conditions: C. acnes KCTC3314, Gram +, anaerobic, RCM, 72 h, 37 °C, triplicate, averaged
Protocol: as §1, §2

[13] = test system: 100-bp DNA ladder and DNA polymerase; test: Competitive binding between DNA and DNA polymerase; conditions: 1 μg peptide, 0.2 μg 100-bp DNA ladder, DNA polymerase 1.0 μL (5 units/μL), 37 °C, 60 min
Protocol: To assess the preferential binding ability of the AOD analogs to DNA or DNA polymerase, a competitive binding assay was performed. Briefly, AOD analog was added to a reaction mixture containing DNA or DNA polymerase and incubated for 60 min at 37 °C. […] Piscidin 1 and 0.01% HAc were the positive and negative controls, respectively.

[14] = test system: 100-bp DNA ladder; test: DNA binding assay (electrophoretic mobility shift); conditions: 1 μg analog with 0.2 μg 100-bp DNA ladder, 37 °C, 60 min, 1.8% agarose gel with EtBr
Protocol: To evaluate the binding ability of the AOD analogs to intracellular components, a DNA binding assay was performed as previously described with minor modifications. The DNA-binding ability of the AOD analogs was assessed through observation of the inhibition of migration of DNA bands through agarose gels. A commercial 100-bp DNA ladder (0.2 μg) (Bioneer Corp., Daejeon, South Korea) was mixed with each analog (1 μg) in 0.01% acetic acid, and the resulting mixture was incubated at 37 °C for 60 min and then electrophoresed on 1.8% agarose gels containing 0.5 μg/mL ethidium bromide (EtBr). HAc (0.01%) was used as a negative control.
To determine the concentration required for the interaction of AOD analogs with DNA, a DNA binding assay was performed with various mixing ratios of analog A3 (0.25–1.0 μg/mL) and 100-bp DNA ladder (0.1–0.4 μg), as described above.

[15] = test system: E. coli DH5α genomic DNA (16S ribosomal gene); test: DNA amplification (PCR) inhibition assay; assay type: biochemical, Escherichia coli; conditions: 1.5 µg of each analog, 0.2 µg E. coli DH5α gDNA, 30 cycles
Protocol: To determine whether AOD analogs target DNA amplification, the ability of the analogs to inhibit DNA amplification was assessed using E. coli DH5α genomic DNA (gDNA). Total gDNA was extracted using the phenol–chloroform method, as described previously. To assess the inhibition of DNA amplification, 1.5 µg AOD analog was added to the polymerase chain reaction (PCR) mixture. The PCR solution consisted of 0.2 µg purified gDNA, 5 µL 10× PCR buffer with MgCl2, 4 µL of each dNTP at 2.5 mM, 0.25 μL Ex Taq polymerase (Takara Bio, Shiga, Japan), 2.0 pmol each of primers 27F (5′-[…]-3′) and 1492R (5′-TACGGCTACCTTGTTACGA-CTT-3′), and up to 50 µL sterile distilled water. The PCR thermal cycling conditions were as follows: initial denaturation at 94 °C for 5 min; 30 cycles of 94 °C for 30 s, 55 °C for 30 s, and 72 °C for 2 min; and a final extension for 10 min at 72 °C. PCR was conducted using a Type 9700 Thermal Cycler (Perkin-Elmer, Norwalk City, CA, USA). The PCR products were confirmed through 1.5% agarose gel electrophoresis with 0.5 μg/mL EtBr. Piscidin 1 was used as a positive control and 0.01% HAc was used as a negative control.

| Structure (SMILES) | Minimal Effective Concentration [1] [µg/mL] | Minimal Effective Concentration [2] [µg/mL] | antimicrobial activity (in words) [3] | Minimal Effective Concentration [4] [µg/mL] | Minimal Effective Concentration [5] [µg/mL] | Minimal Effective Concentration [6] [µg/mL] | Minimal Effective Concentration [7] [µg/mL] | Minimal Effective Concentration [8] [µg/mL] | Minimal Effective Concentration [9] [µg/mL] | Minimal Effective Concentration [10] [µg/mL] | Minimal Effective Concentration [11] [µg/mL] | Minimal Effective Concentration [12] [µg/mL] | competitive binding between DNA and DNA polymerase (electrophoretic mobility of DNA) [13] | electrophoretic mobility of the DNA (DNA-binding ability) [14] | inhibition of DNA amplification (PCR) [15] |
| --- | --- | --- | --- | --- | --- | --- | --- | --- | --- | --- | --- | --- | --- | --- | --- |
| CC(C)C[C@@H]1NC(=O)[C@H](CO)NC(=O)CNC(=O)[C@H](C)NC(=O)[C@@H](N)CSSC[C@@H](C(=O)O)NC(=O)[C@H]([C@@H](C)O)NC(=O)[C@H](CC(C)C)NC(=O)[C@H](CCCNC(=N)N)NC1=O [Analog A0] (H-CAGSLRLTC-OH; disulfide 1-9) | >100.0 | >100.0 | no activity against any of the tested strains | >100.0 | >125.0 | >100.0 | >100.0 | >100.0 | >100.0 | >100.0 | >100.0 | >100.0 |  |  |  |
| CC(=O)N[C@H]1CSSC[C@@H](C(N)=O)NC(=O)[C@H](CCCNC(=N)N)NC(=O)[C@H](CC(C)C)NC(=O)[C@H](CCCNC(=N)N)NC(=O)[C@H](CCCNC(=N)N)NC(=O)[C@H](Cc2c[nH]c3ccccc23)NC(=O)CNC(=O)[C@H](C)NC1=O [Analog A1] (Ac-CAGWRRLRC-NH2; disulfide 1-9) | 68.0 | 15.0 | much weaker antimicrobial activity than the other analogs | 40.0 | >125.0 | >100.0 | 14.0 | 17.0 | >100.0 | 42.0 | 24.0 | >100.0 | inhibited | inhibited | partially or completely inhibited |

Source: article PMC8400246, “Antimicrobial Activity and Action Mechanisms of Arg-Rich Short Analog Peptides Designed from the C-Terminal Loop Region of American Oyster Defensin (AOD)” (Marine Drugs, 2021)
